# Data reported in the supplement of paper PMC10733146.
# Columns and labels:
# Assay in all cases: viability relative to DMSO control (fraction); higher = less drug effect (more viable cells)
# Details in all cases: 48 h
# [1] = compound: CCN(CCCOc1ccc2c(Nc3cc(CC(=O)Nc4cccc(F)c4)[nH]n3)ncnc2c1)CCOP(=O)(O)O [Barasertib]
# Outline: (§1)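 Viability was measured as CellTiter-Glo luminescence relative to the median of 16 inner DMSO wells. Primary mononuclear tumour cells, fresh or cryopreserved, were Ficoll-isolated from blood or bone marrow or taken from processed lymph node. They were seeded at 4 × 10^4 cells per well into 384-well plates holding pre-plated compounds at five concentrations, one well each, and kept in RPMI-1640 with penicillin/streptomycin, L-glutamine and human serum at 37 °C and 5% CO2 for 48 h.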
# [2] = compound: O=C1CCC(N2C(=O)c3ccccc3C2=O)C(=O)N1 [Thalidomide]
# Outline: as §1
# [3] = compound: CC(C)N(CCCNC(=O)Nc1ccc(C(C)(C)C)cc1)C[C@H]1O[C@@H](n2cc(Br)c3c(N)ncnc32)[C@H](O)[C@@H]1O [SGC 0946]
# Outline: as §1
# [4] = compound: CCS(=O)(=O)N1CCC([C@@H](C)n2c(C)c(C(=O)NCc3c(OC)cc(C)[nH]c3=O)c3ccccc32)CC1 [CPI-169]
# Outline: as §1
# [5] = compound: Nc1cccc2c1C(=O)N(C1CCC(=O)NC1=O)C2=O [Pomalidomide]
# Outline: as §1
# [6] = compound: COc1cc([C@@H]2c3cc4c(cc3[C@@H](O[C@@H]3O[C@@H]5CO[C@@H](C)O[C@H]5[C@H](O)[C@H]3O)[C@H]3COC(=O)[C@H]23)OCO4)cc(OC)c1O [Etoposide]
# Outline: as §1
# [7] = compound: O=C(O)CCCc1ccc(N(CCCl)CCCl)cc1 [Chlorambucil]
# Outline: as §1
# [8] = compound: C[C@H]1C[C@@H](n2c(Nc3ccc(OC(F)(F)F)cc3)nc3cc(CCC(=O)O)ccc32)CC(C)(C)C1
# Outline: as §1
# [9] = compound: c1cn2cc(-c3ccc4cn[nH]c4c3)nc(Nc3ccc(N4CCOCC4)cc3)c2n1 [Entospletinib]
# Outline: as §1
# [10] = compound: CC(=O)c1c(C)c2cnc(Nc3ccc(N4CCNCC4)cn3)nc2n(C2CCCC2)c1=O [Palbociclib]
# Outline: as §1
# [11] = compound: O=C(Nc1ccc2[nH]nc(-c3ccncc3)c2c1)[C@@H]1CCN(CC(=O)N2CCN(c3ccc(-c4ncccn4)cc3)CC2)C1
# Outline: as §1
# [12] = compound: CC[C@H](CO)Nc1nc(NCc2ccccc2)c2ncn(C(C)C)c2n1 [Roscovitine]
# Outline: as §1
# [13] = compound: C[C@@H]1CCN(C(=O)CC#N)C[C@@H]1N(C)c1ncnc2[nH]ccc12 [Tofacitinib]
# Outline: as §1
# [14] = compound: CCN(c1cc(-c2ccc(CN3CCOCC3)cc2)cc(C(=O)NCc2c(C)cc(C)[nH]c2=O)c1C)C1CCOCC1 [EPZ-6438]
# Outline: as §1
# [15] = compound: CCNC(=O)C[C@@H]1N=C(c2ccc(Cl)cc2)c2cc(OC)ccc2-n2c(C)nnc21 [I-BET-762]
# Outline: as §1
test system,measurement,setting,value
primary BL patient cells (S005),viability,[1]; 0.0008 µM,1.38
same,viability,[1]; 0.004 µM,1.33
same,viability,[1]; 0.02 µM,0.929
same,viability,[1]; 0.1 µM,0.856
same,viability,[1]; 0.5 µM,0.917
same,viability,[2]; 0.032 µM,0.924
same,viability,[2]; 0.16 µM,0.966
same,viability,[2]; 0.8 µM,0.953
same,viability,[2]; 4 µM,0.98
same,viability,[2]; 20 µM,0.919
same,viability,[3]; 0.024 µM,1.08
same,viability,[3]; 0.12 µM,1.09
same,viability,[3]; 0.6 µM,0.927
same,viability,[3]; 3 µM,1.01
same,viability,[3]; 15 µM,0.712
same,viability,[4]; 0.024 µM,1.04
same,viability,[4]; 0.12 µM,1.03
same,viability,[4]; 0.6 µM,1.12
same,viability,[4]; 3 µM,1.07
same,viability,[4]; 15 µM,1.1
same,viability,[5]; 0.0032 µM,0.921
same,viability,[5]; 0.016 µM,1.07
same,viability,[5]; 0.08 µM,1.11
same,viability,[5]; 0.4 µM,0.957
same,viability,[5]; 2 µM,1.04
same,viability,[6]; 0.032 µM,1
same,viability,[6]; 0.16 µM,1.22
same,viability,[6]; 0.8 µM,1.3
same,viability,[6]; 4 µM,1.05
same,viability,[6]; 20 µM,1.12
same,viability,[7]; 0.032 µM,0.967
same,viability,[7]; 0.16 µM,0.887
same,viability,[7]; 0.8 µM,0.974
same,viability,[7]; 4 µM,1.02
same,viability,[7]; 20 µM,0.918
same,viability,[8]; 0.024 µM,1.38
same,viability,[8]; 0.12 µM,1.01
same,viability,[8]; 0.6 µM,0.993
same,viability,[8]; 3 µM,1.45
same,viability,[8]; 15 µM,0.977
same,viability,[9]; 0.024 µM,1.01
same,viability,[9]; 0.12 µM,0.996
same,viability,[9]; 0.6 µM,1.06
same,viability,[9]; 3 µM,1.08
same,viability,[9]; 15 µM,0.986
same,viability,[10]; 0.024 µM,0.948
same,viability,[10]; 0.12 µM,1.16
same,viability,[10]; 0.6 µM,0.873
same,viability,[10]; 3 µM,1.06
same,viability,[10]; 15 µM,0.825
same,viability,[11]; 0.008 µM,1.02
same,viability,[11]; 0.04 µM,1.08
same,viability,[11]; 0.2 µM,1.02
same,viability,[11]; 1 µM,0.993
same,viability,[11]; 5 µM,0.935
same,viability,[12]; 0.032 µM,1.01
same,viability,[12]; 0.16 µM,1.56
same,viability,[12]; 0.8 µM,1.01
same,viability,[12]; 4 µM,1.6
same,viability,[12]; 20 µM,1.37
same,viability,[13]; 0.024 µM,0.965
same,viability,[13]; 0.12 µM,0.944
same,viability,[13]; 0.6 µM,0.917
same,viability,[13]; 3 µM,0.939
same,viability,[13]; 15 µM,0.823
same,viability,[14]; 0.024 µM,1.15
same,viability,[14]; 0.12 µM,1.18
same,viability,[14]; 0.6 µM,1.04
same,viability,[14]; 3 µM,1.08
same,viability,[14]; 15 µM,0.967
same,viability,[15]; 0.008 µM,1.08
same,viability,[15]; 0.04 µM,0.956
same,viability,[15]; 0.2 µM,0.889
same,viability,[15]; 1 µM,0.822
same,viability,[15]; 5 µM,0.768
primary CLL patient cells (S031),viability,[1]; 0.0008 µM,0.781
same,viability,[1]; 0.004 µM,0.764
same,viability,[1]; 0.02 µM,0.85
same,viability,[1]; 0.1 µM,0.954
same,viability,[1]; 0.5 µM,0.93
same,viability,[2]; 0.032 µM,0.913
same,viability,[2]; 0.16 µM,0.974
same,viability,[2]; 0.8 µM,0.95
same,viability,[2]; 4 µM,0.97
same,viability,[2]; 20 µM,0.961
same,viability,[3]; 0.024 µM,0.922
same,viability,[3]; 0.12 µM,0.942
same,viability,[3]; 0.6 µM,0.848
same,viability,[3]; 3 µM,0.793
same,viability,[3]; 15 µM,0.355
same,viability,[4]; 0.024 µM,0.891
same,viability,[4]; 0.12 µM,0.931
same,viability,[4]; 0.6 µM,0.925
same,viability,[4]; 3 µM,0.895
same,viability,[4]; 15 µM,0.799
same,viability,[5]; 0.0032 µM,0.987
same,viability,[5]; 0.016 µM,1.24
same,viability,[5]; 0.08 µM,1.27
same,viability,[5]; 0.4 µM,1.33
same,viability,[5]; 2 µM,1.48
same,viability,[6]; 0.032 µM,1.03
same,viability,[6]; 0.16 µM,0.996
same,viability,[6]; 0.8 µM,0.858
same,viability,[6]; 4 µM,0.728
same,viability,[6]; 20 µM,0.329
same,viability,[7]; 0.032 µM,0.957
same,viability,[7]; 0.16 µM,0.875
same,viability,[7]; 0.8 µM,0.965
same,viability,[7]; 4 µM,0.661
same,viability,[7]; 20 µM,0.102
same,viability,[8]; 0.024 µM,0.737
same,viability,[8]; 0.12 µM,0.895
same,viability,[8]; 0.6 µM,0.868
same,viability,[8]; 3 µM,0.774
same,viability,[8]; 15 µM,0.805
same,viability,[9]; 0.024 µM,1.09
same,viability,[9]; 0.12 µM,0.937
same,viability,[9]; 0.6 µM,1.04
same,viability,[9]; 3 µM,0.958
same,viability,[9]; 15 µM,0.934
same,viability,[10]; 0.024 µM,0.971
same,viability,[10]; 0.12 µM,0.805
same,viability,[10]; 0.6 µM,0.662
same,viability,[10]; 3 µM,0.363
same,viability,[10]; 15 µM,0.317
same,viability,[11]; 0.008 µM,0.782
same,viability,[11]; 0.04 µM,0.686
same,viability,[11]; 0.2 µM,0.469
same,viability,[11]; 1 µM,0.307
same,viability,[11]; 5 µM,0.269
same,viability,[12]; 0.032 µM,0.81
same,viability,[12]; 0.16 µM,0.872
same,viability,[12]; 0.8 µM,0.921
same,viability,[12]; 4 µM,0.734
same,viability,[12]; 20 µM,0.455
same,viability,[13]; 0.024 µM,0.904
same,viability,[13]; 0.12 µM,0.88
same,viability,[13]; 0.6 µM,0.858
same,viability,[13]; 3 µM,0.938
same,viability,[13]; 15 µM,0.791
same,viability,[14]; 0.024 µM,0.927
same,viability,[14]; 0.12 µM,0.931
same,viability,[14]; 0.6 µM,0.939
same,viability,[14]; 3 µM,0.915
same,viability,[14]; 15 µM,0.8
same,viability,[15]; 0.008 µM,0.986
same,viability,[15]; 0.04 µM,0.964
same,viability,[15]; 0.2 µM,0.969
same,viability,[15]; 1 µM,0.842
same,viability,[15]; 5 µM,0.628
primary CLL patient cells (S043),viability,[1]; 0.0008 µM,0.995
same,viability,[1]; 0.004 µM,0.966
same,viability,[1]; 0.02 µM,0.952
same,viability,[1]; 0.1 µM,0.924
same,viability,[1]; 0.5 µM,0.929
same,viability,[2]; 0.032 µM,0.893
same,viability,[2]; 0.16 µM,0.892
same,viability,[2]; 0.8 µM,0.892
same,viability,[2]; 4 µM,0.939
same,viability,[2]; 20 µM,0.945
same,viability,[3]; 0.024 µM,0.87
same,viability,[3]; 0.12 µM,0.88
same,viability,[3]; 0.6 µM,0.877
same,viability,[3]; 3 µM,0.872
same,viability,[3]; 15 µM,0.756
same,viability,[4]; 0.024 µM,0.895
same,viability,[4]; 0.12 µM,0.903
same,viability,[4]; 0.6 µM,0.877
same,viability,[4]; 3 µM,0.915
same,viability,[4]; 15 µM,0.915
same,viability,[5]; 0.0032 µM,0.98
same,viability,[5]; 0.016 µM,1.07
same,viability,[5]; 0.08 µM,1.08
same,viability,[5]; 0.4 µM,1.02
same,viability,[5]; 2 µM,1.03
same,viability,[6]; 0.032 µM,1.12
same,viability,[6]; 0.16 µM,1.02
same,viability,[6]; 0.8 µM,0.987
same,viability,[6]; 4 µM,1.01
same,viability,[6]; 20 µM,0.813
same,viability,[7]; 0.032 µM,0.942
same,viability,[7]; 0.16 µM,0.954
same,viability,[7]; 0.8 µM,0.977
same,viability,[7]; 4 µM,0.859
same,viability,[7]; 20 µM,0.441
same,viability,[8]; 0.024 µM,0.84
same,viability,[8]; 0.12 µM,0.859
same,viability,[8]; 0.6 µM,0.895
same,viability,[8]; 3 µM,1.08
same,viability,[8]; 15 µM,0.803
same,viability,[9]; 0.024 µM,0.988
same,viability,[9]; 0.12 µM,0.936
same,viability,[9]; 0.6 µM,0.94
same,viability,[9]; 3 µM,0.977
same,viability,[9]; 15 µM,0.947
same,viability,[10]; 0.024 µM,0.981
same,viability,[10]; 0.12 µM,0.959
same,viability,[10]; 0.6 µM,0.876
same,viability,[10]; 3 µM,0.722
same,viability,[10]; 15 µM,0.421
same,viability,[11]; 0.008 µM,0.757
same,viability,[11]; 0.04 µM,0.734
same,viability,[11]; 0.2 µM,0.683
same,viability,[11]; 1 µM,0.661
same,viability,[11]; 5 µM,0.629
same,viability,[12]; 0.032 µM,0.869
same,viability,[12]; 0.16 µM,0.972
same,viability,[12]; 0.8 µM,0.952
same,viability,[12]; 4 µM,1.08
same,viability,[12]; 20 µM,0.901
same,viability,[13]; 0.024 µM,0.937
same,viability,[13]; 0.12 µM,0.965
same,viability,[13]; 0.6 µM,0.961
same,viability,[13]; 3 µM,0.969
same,viability,[13]; 15 µM,1.14
same,viability,[14]; 0.024 µM,1.05
same,viability,[14]; 0.12 µM,0.982
same,viability,[14]; 0.6 µM,0.926
same,viability,[14]; 3 µM,0.963
same,viability,[14]; 15 µM,0.899
same,viability,[15]; 0.008 µM,0.909
same,viability,[15]; 0.04 µM,0.929
same,viability,[15]; 0.2 µM,0.947
same,viability,[15]; 1 µM,0.884
same,viability,[15]; 5 µM,0.756
